Reference: PubChem BioAssay AID328 (DTP/NCI, 2004)
Several values for one entry are separate records, joined by “and”; a condition that tells them apart may be missing. Equal entries are not always repeated. Toxic doses and inconclusive results are not listed.

Tested on: BDF1 mice, P388 leukemia ip, median survival T/C
Assay: NCI In Vivo Anticancer Drug Screen. Data for tumor model P388 Leukemia (intraperitoneal) in B6D2F1 (BDF1) mice
Details: endpoint: median survival time, higher = longer survival
Method: The antitumor activity of compounds was measured in mice bearing transplantable tumors. Survival or tumor size were measured and the results are expressed as the measurement made in the treated group (T) divided by the measurement made in the vehicle treated control group (C). The tumor model used in this assay is P388 Leukemia (intraperitoneal) in B6D2F1 (BDF1) mice

[1] = dose: 3.6 mg/kg/injection, schedule: Q04DX003 (ip), vehicle: saline

In the case of `Cc1ccc(S(=O)(=O)OCCN(CCOS(=O)(=O)c2ccc(C)cc2)c2ccc(N=O)cc2)cc1`, the T/C (dose: 66.0 mg/kg/injection, schedule: Q04DX003 (ip), vehicle: saline sonified) is reported as 195 % of control, the T/C (dose: 100.0 mg/kg/injection, schedule: Q04DX003 (ip), vehicle: saline sonified) is reported as 200 % of control and the T/C (dose: 150.0 mg/kg/injection, schedule: Q04DX003 (ip), vehicle: saline sonified) is reported as 216 % of control.
In the case of `CC(=O)Nc1ccc2cnn(C(C)=O)c2c1`, the T/C (dose: 25.0 mg/kg/injection, schedule: Q01DX009 (ip), vehicle: water) is reported as 89 % of control, the T/C (dose: 50.0 mg/kg/injection, schedule: Q01DX009 (ip), vehicle: water) is reported as 86 % of control and the T/C (dose: 50.0 mg/kg/injection, schedule: Q04DX003 (ip), vehicle: water) is reported as 113 % of control. The T/C (dose: 100.0 mg/kg/injection, schedule: Q01DX009 (ip), vehicle: water) was 88 % of control, the T/C (dose: 100.0 mg/kg/injection, schedule: Q04DX003 (ip), vehicle: water) was 111 % of control and the T/C (dose: 200.0 mg/kg/injection, schedule: Q01DX009 (ip), vehicle: water) was 92 % of control. The T/C (dose: 200.0 mg/kg/injection, schedule: Q04DX003 (ip), vehicle: water) was 97 % of control, the T/C (dose: 400.0 mg/kg/injection, schedule: Q01DX009 (ip), vehicle: water) was 91 % of control and the T/C (dose: 400.0 mg/kg/injection, schedule: Q04DX003 (ip), vehicle: water) was 97 % of control.
For `CC1(C)CC2C(=O)c3ccccc3NC2c2ccccc21` (stereo not drawn), the T/C (dose: 100.0 mg/kg/injection, schedule: Q01DX009 (ip), vehicle: Klucel (hydroxypropylcellulose) (HPC)) was 87 % of control, the T/C (dose: 100.0 mg/kg/injection, schedule: Q04DX003 (ip), vehicle: Klucel (hydroxypropylcellulose) (HPC)) was 112 % of control and the T/C (dose: 200.0 mg/kg/injection, schedule: Q01DX009 (ip), vehicle: Klucel (hydroxypropylcellulose) (HPC)) was 108 % of control. For the same compound, the T/C (dose: 200.0 mg/kg/injection, schedule: Q04DX003 (ip), vehicle: Klucel (hydroxypropylcellulose) (HPC)) was 104 % of control and the T/C (dose: 400.0 mg/kg/injection, schedule: Q04DX003 (ip), vehicle: Klucel (hydroxypropylcellulose) (HPC)) was 108 % of control.
In the case of `COc1ccc(/C=C/C(=O)c2ccccc2)cc1`, the T/C (dose: 100.0 mg/kg/injection, schedule: Q01DX009 (ip), vehicle: saline with Tween-80) is reported as 97 % of control, the T/C (dose: 100.0 mg/kg/injection, schedule: Q04DX003 (ip), vehicle: saline with Tween-80) is reported as 104 % of control and the T/C (dose: 200.0 mg/kg/injection, schedule: Q01DX009 (ip), vehicle: saline with Tween-80) is reported as 98 % of control. The T/C (dose: 200.0 mg/kg/injection, schedule: Q04DX003 (ip), vehicle: saline with Tween-80) was 104 % of control, the T/C (dose: 400.0 mg/kg/injection, schedule: Q01DX009 (ip), vehicle: saline with Tween-80) was 98 % of control and the T/C (dose: 400.0 mg/kg/injection, schedule: Q04DX003 (ip), vehicle: saline with Tween-80) was 104 % of control.
With `CCCCCCCC[N+](CC)(CC)CCOC(=O)C(C1CCCC1)C1CCCC1` the T/C (dose: 0.9 mg/kg/injection, schedule: Q04DX003 (ip), vehicle: saline) was 90 % of control, the T/C (dose: 1.32 mg/kg/injection, schedule: Q01DX001 (ip), vehicle: saline) was 87 % of control and the T/C (dose: 1.8 mg/kg/injection, schedule: Q04DX003 (ip), vehicle: saline) was 109 % of control. For the same compound, the T/C (dose: 2.65 mg/kg/injection, schedule: Q01DX001 (ip), vehicle: saline) was 100 % of control, the T/C (dose: 3.6 mg/kg/injection, schedule: Q01DX009 (ip), vehicle: saline) was 110 % of control and the T/C [1] was 109 % of control. For the same compound, the T/C (dose: 5.3 mg/kg/injection, schedule: Q01DX001 (ip), vehicle: saline) was 91 % of control and the T/C (dose: 5.3 mg/kg/injection, schedule: Q04DX003 (ip), vehicle: saline) was 90 % of control.
For `Cc1cc(O)c2cc3c(O)c(O)ccc3cc2c1`, the T/C (dose: 0.5 mg/kg/injection, schedule: Q01DX010 (ip), vehicle: saline) was 100 % of control, the T/C (dose: 1.0 mg/kg/injection, schedule: Q01DX010 (ip), vehicle: saline) was 109 % of control and the T/C (dose: 2.0 mg/kg/injection, schedule: Q01DX010 (ip), vehicle: saline) was 118 % of control and 122 % of control. The T/C (dose: 4.0 mg/kg/injection, schedule: Q01DX010 (ip), vehicle: saline) was 122 % of control, the T/C (dose: 31.3 micrograms/kg/injection, schedule: Q01DX010 (ip), vehicle: saline) was 109 % of control and the T/C (dose: 125.0 micrograms/kg/injection, schedule: Q01DX010 (ip), vehicle: saline) was 90 % of control. The T/C (dose: 250.0 micrograms/kg/injection, schedule: Q01DX010 (ip), vehicle: saline) was 90 % of control.
With `CC([NH-])C(=O)O.CC([NH-])C(=O)O.[Ni+2]` (stereo not drawn) the T/C (dose: 4.0 mg/kg/injection, schedule: Q01DX009 (ip), vehicle: saline) was 109 % of control, the T/C (dose: 6.25 mg/kg/injection, schedule: Q01DX009 (ip), vehicle: saline) was 103 % of control and the T/C (dose: 8.0 mg/kg/injection, schedule: Q01DX009 (ip), vehicle: saline) was 113 % of control. For the same compound, the T/C (dose: 12.5 mg/kg/injection, schedule: Q01DX009 (ip), vehicle: saline) was 107 % of control, the T/C (dose: 15.0 mg/kg/injection, schedule: Q04DX003 (ip), vehicle: saline) was 113 % of control and the T/C (dose: 16.0 mg/kg/injection, schedule: Q01DX009 (ip), vehicle: saline) was 113 % of control. The T/C (dose: 25.0 mg/kg/injection, schedule: Q04DX003 (ip), vehicle: saline) was 118 % of control.
With `C=C1CCC2(C)C(O)CC3(C)C(CCC4C5(C)CCC(OC(C)=O)C(C)(C)C5CCC43C)C2C1C` (stereo not drawn) the T/C (dose: 1.0 mg/kg/injection, schedule: Q01DX009 (ip), vehicle: saline + alcohol) was 97 % of control, the T/C (dose: 2.0 mg/kg/injection, schedule: Q01DX009 (ip), vehicle: saline + alcohol) was 106 % of control and the T/C (dose: 4.0 mg/kg/injection, schedule: Q01DX009 (ip), vehicle: saline + alcohol) was 92 % of control.
With `OCC(O)C(O)C(O)C(O)C(O)CO` (stereo not drawn) the T/C (dose: 100.0 mg/kg/injection, schedule: Q01DX010 (ip), vehicle: carboxymethylcellulose (CMC)) was 100 % of control, the T/C (dose: 100.0 mg/kg/injection, schedule: Q01DX010 (ip), vehicle: saline) was 95 % of control and the T/C (dose: 400.0 mg/kg/injection, schedule: Q01DX010 (ip), vehicle: carboxymethylcellulose (CMC)) was 100 % of control. For the same compound, the T/C (dose: 400.0 mg/kg/injection, schedule: Q01DX010 (ip), vehicle: saline) was 100 % of control.
With `COc1c2c([n+](C)c3c(OC)cccc13)OC(C(C)C)C2` (stereo not drawn) the T/C (dose: 0.03 mg/kg/injection, schedule: Q01DX009 (ip), vehicle: saline) was 109 % of control, the T/C (dose: 0.06 mg/kg/injection, schedule: Q01DX009 (ip), vehicle: saline) was 104 % of control and the T/C (dose: 0.12 mg/kg/injection, schedule: Q01DX009 (ip), vehicle: saline) was 109 % of control. For the same compound, the T/C (dose: 0.18 mg/kg/injection, schedule: Q04DX003 (ip), vehicle: saline) was 100 % of control, the T/C (dose: 0.25 mg/kg/injection, schedule: Q01DX009 (ip), vehicle: Klucel (hydroxypropylcellulose) (HPC)) was 104 % of control and the T/C (dose: 0.25 mg/kg/injection, schedule: Q01DX009 (ip), vehicle: saline) was 104 % of control and 120 % of control. For the same compound, the T/C (dose: 0.37 mg/kg/injection, schedule: Q04DX003 (ip), vehicle: saline) was 118 % of control, the T/C (dose: 0.5 mg/kg/injection, schedule: Q01DX009 (ip), vehicle: Klucel (hydroxypropylcellulose) (HPC)) was 104 % of control and the T/C (dose: 0.5 mg/kg/injection, schedule: Q01DX009 (ip), vehicle: saline) was 112 % of control. For the same compound, the T/C (dose: 0.75 mg/kg/injection, schedule: Q04DX003 (ip), vehicle: saline) was 104 % of control, the T/C (dose: 1.0 mg/kg/injection, schedule: Q01DX009 (ip), vehicle: Klucel (hydroxypropylcellulose) (HPC)) was 118 % of control and the T/C (dose: 1.1 mg/kg/injection, schedule: Q04DX003 (ip), vehicle: saline) was 90 % of control. For the same compound, the T/C (dose: 1.7 mg/kg/injection, schedule: Q04DX003 (ip), vehicle: saline) was 100 % of control, the T/C (dose: 2.5 mg/kg/injection, schedule: Q04DX003 (ip), vehicle: saline) was 90 % of control and the T/C [1] was 86 % of control.
`O=C(Nc1ccccc1)c1c(O)[nH]c(=S)[nH]c1=O` was tested, and the T/C (dose: 50.0 mg/kg/injection, schedule: Q01DX005 (ip), vehicle: saline with Tween-80) was 194 % of control.
